# “Also recorded” adds a separate entry of the source.
# B1: TRAIL: tumor necrosis factor-related apoptosis-inducing ligand, recombinant human (protein, UniProt P50591 1-281, looked up)
# Tumor necrosis factor ligand …: MAMMEVQGGPSLGQTCVLIVIFTVLLQSLCVAVTYVYFTNELKQMQDKYSKSGIACFLKEDDSYWDPNDEESMNSPCWQVKWQLRQLVRKMILRTSEETISTVQEKQQNISPLVRERGPQRVAAHITGTRGRSNTLSSPNSKNEKALGRKINSWESSRSGHSFLSNLHLRNGELVIHEKGFYYIYSQTYFRFQEEIKENTKNDKQMVQYIYKYTSYPDPILLMKSARNSCWSKDAEYGLYSIYQGGIFELKENDRIFVSVTNEHLIDMDHEASFFGAFLVG
# Legend:
# DLD1 cells [1] = assay: Cellular uptake and efflux of 99mTc-chelate 4, radiotracer analysis; assay type: cell-based, human; conditions: for Efflux / retention in DLD1 cells after wash: 2 h loading, fresh medium 60-180 min
# Method: The medium was replaced with 2 mL of medium containing radiotracers 99 mTc-chelate 4 [Ac-DEVD-R110-D-SAAC-99mTc(CO)3] (˜40 μCi/mL) or its fragment R110-D-SAAC-99 mTc(CO)3 (˜40 μCi/mL). The cells were subsequently incubated for 60 and 120 min before the monolayers were scraped, transferred into 5-mL tubes. The tubes were briefly vortexed and 100 μL DLD1 cell suspension were transferred into a microcentrifuge tube containing 500 μL of a 75:25 mixture of silicon oil (density 1.05, Aldrich) and mineral oil (density 0.872, Acros). The mixture was centrifuged at 14,000 rpm for 5 min. After freezing the tubes with liquid nitrogen, the bottom tips containing the cell pellet were cut off. The cell pellets and the supernatants were counted with a γ-counter (Perkin-Elmer). The protein content in 100 μl cell suspension was quantified in a separate experiment using the Bio-Rad protein assay kit according to the manufacturer's protocol. For efflux study, cells were incubated with each radiotracer for 2 hrs, then the medium was removed and the cells washed with medium twice. The cells were incubated with 2 mL of fresh medium for additional 60 min, 120 min, and 180 min. The radioactivity in the cell pellets and media were counted as described before. Activity ratios of the cell pellet to medium ([cpm/g protein in pellet]/[cpm/g medium]) were calculated and plotted against time. The experiments were performed in pentaplicate.
# liver = assay: Radio-HPLC analysis of liver extracts from mice injected 99mTc-chelate 4; conditions: mouse, in vivo
# Method: Two hours after intravenous injection of 4 (1 mCi, 80 μg, 0.2 mL) into a mouse treated with […] and a mouse treated with PBS 2 h prior to the injection of the radiotracer, mice were killed and livers were removed and ground at 4° C. using a Dounce homogenizer (Polytron, […], Switzerland) in 5 mL of acetonitrile/methanol (3:1, v/v). After sequential high-speed centrifugation (100,000 g for 20 min) to remove cellular debris and insoluble proteins, the supernatants were concentrated and injected into the radio-HPLC system (condition: solvent A, 0.01 M NH4OAc in water; solvent B, acetonitrile; gradient: 0-80% B in A over 40 min, flow rate 1.0 mL/min, C18 4.6×250 mm, 5-μm column).
# [2] = system: activated caspase 3 in liver; assay: Fluorescence microscopic analysis of liver from mice injected 99mTc-chelate 4; assay type: in vivo, mouse; conditions: anti-Fas-treated vs PBS-treated liver, 2 h after i.v. injection
# Method: The tissue slices were fixed using 4% paraformaldehyde for 15 min at room temperature. After PBS washing, the samples were blocked with 10% goat serum at 37° C. for 30 min, followed by 1 μg/mL of rabbit anti-mouse-activated caspase 3 monoclonal antibody (R&D Systems, Minneapolis, Minn.) at 4° C. overnight. Texas red-conjugated goat anti-rabbit IgG (1:1000, Invitrogen, Eugene, Oreg.) was used as second antibody at room temperature for 1 h. Cell nuclei were counterstained with 3 μg/mL of Hoechst 33342 at room temperature for 5 min. The slices were mounted and visualized under a Zeiss Axio Observer.Z1 fluorescence microscope (Carl Zeiss MicroImaging GmbH, Göttingen, Germany).
# apoptotic liver = assay: Gamma imaging in murine liver apoptosis model (anti-Fas); assay type: in vivo, mouse; conditions: 300 μCi i.v., imaging 120 min after injection
# Excerpt: We used a murine liver apoptosis model to evaluate whether chelate 4 could be used to image apoptosis in vivo. F. G. Blankenberg, J. F. Tait, R. E. Davis, L. Naumovski, K. Ohtsuki, S. Kopiwoda, M. J. Abrams, M. Darkes, R. C. Robbins, H. T. Maecker, H. W. Strauss, Proc. Natl. Acad. Sciences USA 1998, 95, 6349-6354; F. G. Blankenberg, P. D. Katsikis, J. F. Tait, R. E. Davis, L. Naumovski, K. Ohtsuki, S. Kopiwoda, M. J. Abrams, H. W. Strauss, J. Nucl. Med. 1999, 40, 184-191. Male Balb/c mice (10-12 weeks old, weight 20-25 g) were injected intravenously with an anti-Fas monoclonal antibody (10 μg/mouse) to induce apoptosis in the liver. […] Radionuclide imaging was acquired 120 min after the injection of 4.
# Gamma Imaging and Biodistribution For γ-imaging study, two male Balb/c mice (10-12 weeks old, weight 20-25 g) (Charles River, Wilmington, Mass.) were injected intravenously with a purified anti-Fas monoclonal antibody (10 μg/mouse) (Pharmingen, San Diego, Calif.). Two mice injected with PBS were used as a control group. […] The organs of interest were excised and weighed, and radioactivity was counted in a gamma counter. The stomach and intestines were emptied of food contents prior to radioactivity measurements. The percentage of injected dose per gram (% ID/g) was calculated by dividing the % ID/organ by the weight of the tissue.
# [3] = Stability of 99mTc-chelate 4, ligand challenge with cysteine and histidine; assay type: physicochemical; conditions: 0.01 M cysteine or histidine in PBS, 37° C., 1 and 5 h
# Method: A large excess of competing donors cysteine and histidine was used as a means of evaluating the complex's tendency to undergo transchelation. […] The samples were incubated at 37° C. and analyzed by HPLC at 1- and 5-h intervals.
# [4] = Stability of DEVD profluorophore 2 in PBS and serum-containing culture medium; assay type: physicochemical; conditions: 10 μM in PBS, 1 μM in medium, room temperature, 8 h
# Method: Stability of DEVD profluorophore 2 in PBS and serum-containing culture medium For the stability assay, the generation of fluorescence was recorded continuously at room temperature for 8 h for a solution of 2 (10 μM) or fluorescein diacetate (10 μM) in 3 mL of PBS using a Fluorolog-3 fluorometer (Jobin Yvon, Edison, N.J.) at λex=496 nm. The procedure was repeated for a solution of 2 (1 μM) or fluorescein diacetate (1 μM) in Dulbecco's modified Eagle medium supplemented with 10% (v/v) fetal bovine serum. Cleavage of amide bond linking R110 to DEVD or hydrolysis of fluorescein diacetate would result in increased fluorescence signal.
# Human caspase 3 = molecular target: T1, Human caspase 3 (Homo sapiens, UniProt P42574); assay: Cleavage by caspase 3 (fluorescence emission and LC-MS); assay type: biochemical
# T1 construct: purchased Sigma-Aldrich
# T1 sequence (P42574 29-175 limits assumed): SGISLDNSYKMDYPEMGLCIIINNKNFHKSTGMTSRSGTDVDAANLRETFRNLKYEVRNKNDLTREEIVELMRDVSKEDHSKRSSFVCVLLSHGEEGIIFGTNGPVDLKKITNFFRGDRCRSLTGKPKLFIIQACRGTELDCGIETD
# T1 sequence (P42574 176-277 limits assumed): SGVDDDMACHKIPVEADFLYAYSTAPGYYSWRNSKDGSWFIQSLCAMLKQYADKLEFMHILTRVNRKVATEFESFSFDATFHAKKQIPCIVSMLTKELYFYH
# Method: Cleavage by caspase 3 Human caspase 3 (Sigma-Aldrich) (5 μg) was reconstituted with 50 μL of deionized water (100 μg/mL) and stored in aliquots at −70° C. Before its use, an aliquot of reconstituted caspase 3 was thawed and diluted 200-fold in 1× assay buffer to a final concentration of 0.5 μg/mL. Five microliters of diluted caspase 3 was then added into a solution of 2 (22 μM) in 3 mL 1× assay buffer (20 mM HEPES [pH 7.4], with 2 mM ethylenediaminetetraacetic acid, 0.1% 3-[(3-cholamidopropyl)dimethylammonio]-1-propanesulfonate, and 5 mM dithiothreitol). The reaction mixture was incubated in cuvet in dark at room temperature and the emission spectra were recorded at intervals of 0, 10, 20, 30 and 60 min on a Fluorolog 3 fluorometer (HORIBA, Edison, N.J.) with an excitation wavelength (λex) of 496 nm.
# To further confirm cleavage of 2 by caspase 3, 5 μL of caspase 3 (0.5 μg/mL) was mixed with 10 μL of 1 mM solution of 2 dissolved in 1× assay buffer. After 1 h at room temperature, the reaction mixture was injected into LC-MS system.
# DLD1 cells [5] = assay: Cellular uptake and efflux of DEVD peptides 2 and 3, fluorescence analysis; assay type: cell-based, human
# Method: Cellular uptake and efflux of DEVD peptides 2 and 3—fluorescence analysis DLD1 cells were seeded (1×10^4/well) in a 96-well plate 1 day before experiments. The DLD1 cells were sequentially treated with 100 μL of the following agents at 37° C.: (A) 25 μM each DEVD conjugate for 2 h; (B) 25 μM each DEVD conjugate for 2 h followed by TRAIL (150 ng/L) for 2 h; (C) 25 μM each DEVD conjugate for 2 h, drug-free culture medium for 2 h, and TRAIL (150 ng/L) for 2 h; and (D) 25 μM each DEVD conjugate for 2 h, drug-free culture medium for 24 h, and TRAIL (150 ng/L) for 2 h. The cells were washed with PBS twice before each medium replacement. After treatment, the cells were lysed with 100 μL of lysis buffer (Sigma) for […] at room temperature. The fluorescence intensity of cleaved R110 was measured using a TECAN microplate reader (San Jose, Calif.). The measurement parameters were as follows: excitation wavelength, 485 nm; emission wavelength, 520 nm; excitation and emission bandwidth, both 12.0 nm; gain, 50; number of flashes, 10; and integration time, 30 μs. The measurements were performed 4 times each.
# Uptake and release kinetics of DEVD peptides in normal and apoptotic cells. DLD-1 cells were seeded (1×10^4/well) in 96 well plate 1 days before experiment. […] The fluorescent intensity of cleaved R110 was measured using TECAN microplate reader (San Jose, Calif.). […]
# DLD1 cells [6] = assay: Fluorescence microscopy of viable and TRAIL-treated apoptotic DLD1 cells; assay type: cell-based, human; conditions: for Effect on apoptosis of DLD1 cells (annexin V staining): annexin V-Alexa Fluor 594 staining
# Method: Fluorescence Microscopy Human epithelial cells from colorectal adenocarcinoma (DLD1) were seeded (1×10^4/well) in a 96-well plate 1 day before experiments. Apoptosis was induced by treating cells with TRAIL (100 μL, 250 ng/mL) for 2 h at 37° C. Both apoptotic and viable cells were incubated with 100 μL of 2 or 3 in (final concentration, 50 μM) for 2 h at 37° C. The cells were washed and stained with Annexin V-Alexa Fluor 594. After washing with PBS, the cells were transferred into Lab-Tek II chambered cover glass and visualized under Olympus Fluoview FV1000 confocal laser scanning microscope (FV1-ASW, Olympus, Melville, N.Y.) equipped with fluorescein isothiocyanate (wavelength: 495/519 nm) and Texas red filters (wavelength: 589/615 nm). In separate wells, TRAIL was added in the presence of 50 μM of Ac-DEVD-CHO to inhibit caspase 3 activity.
# Fluorescence microscopy Human epithelial cells from colorectal adenocarcinoma (DLD1) were obtained from American Type Cell Culture (Manassas, Va.). Cells were seeded (1×10^4/well) in a 96-well plate (Corning, Lowell, Mass.) supplemented with RPMI-1640 medium plus 10% fetal bovine serum (FBS) 1 day before experiments. Apoptosis was induced by treating cells with TRAIL (100 μL, 250 ng/mL) for 2 h at 37° C. The treated apoptotic cells were collected in conical tubes, while the untreated viable cells were trypsinized. The cells were centrifuged at 3000 rpm for 5 mM. The pellets were washed with RPMI 1640 without phenol red. Both apoptotic and viable cells were incubated with 100 μL, of 2 or 3 in RPMI 1640 without phenol red (final concentration, 50 μM) for 2 h at 37° C. The cells were washed and resuspended in annexin-binding buffer (10 mM HEPES, 140 mM NaCl, and 2.5 mM CaCl2 [pH 7.4]). Five microliters of Alexa Fluor 594-annexin V conjugate was added into each 100 μl of cell suspension, and the cells were incubated for 15 min at room temperature. […]
molecule,measurement,setting,value
R110-D-SAAC-^99mTc(CO)3,Permeability to plasma membrane compared with parent substrate,DLD1 cells [1],less permeable to plasma membrane
same,Efflux / retention in DLD1 cells after wash,DLD1 cells [1],trapped in the cells
same,Retention of degradation product in liver,liver,retained in the apoptotic liver in its intact form
Ac-DEVD-R110-D-SAAC-^99mTc(CO)3 [^99mTc-chelate 4],Uptake in DLD1 cells (cell pellet to medium activity ratio),"DLD1 cells [1]; 1-2 h of incubation, compared with fragment",accumulated significantly more in the cells than its fragment did; also recorded: significantly higher uptake in DLD1 cells
same,Efflux / retention in DLD1 cells after wash,DLD1 cells [1],washed out of the cells over time; also recorded: gradually washed out
same,Cleavage of fluorogenic probe in liver sections,[2],shown only in the apoptotic liver but not in the normal liver
same,"Liver uptake, anti-Fas-treated vs PBS-treated mice (radionuclide imaging)",apoptotic liver,Significantly higher uptake
same,Transchelation under cysteine/histidine challenge,[3],No transchelation was observed
Ac-DEVD-R110-D-SAAC-Fmoc [Compound 2],Stability in PBS and culture medium with 10% FBS (generation of fluorescence),[4],stable in both PBS and culture medium supplemented with serum; also recorded: remarkable stability in both PBS and culture medium supplemented with serum
same,Fluorescence change after introduction of caspase 3,"Human caspase 3; 22 μM, over 60 min, λex 496 nm",large increase in fluorescence
same,Fluorescence emission without exposure to caspase 3,"Human caspase 3; 22 μM, λex 496 nm, room temperature",near-baseline emission
same,Site of hydrolytic cleavage by caspase 3 (LC-MS),Human caspase 3; 1 h at room temperature,occurred selectively at the amide bond between DEVD and R110
same,Degradation on incubation with caspase 3,Human caspase 3; fluorescence increase and LC-MS,completely degraded
same,Uptake in viable tumor cells: reversibility (efflux in drug-free medium 2 or 24 h),"DLD1 cells [5]; 25 μM 2 h, then drug-free medium, then TRAIL",reversible process
same,Increase of fluorescence intensity upon TRAIL treatment,DLD1 cells [5]; 25 μM 2 h followed by TRAIL (150 ng/mL) 2 h vs no TRAIL,27 fold
Ac-DEVD-CHO,Effect of caspase 3 inhibitor on fluorescent signal from 3,DLD1 cells [6]; 50 μM Ac-DEVD-CHO with TRAIL,significantly reduced the fluorescent signal from 3
same,Effect on apoptosis of DLD1 cells (annexin V staining),DLD1 cells [6],did not inhibit the apoptosis of DLD1 cells
"CC(=O)Oc1ccc2c(c1)Oc1cc(OC(C)=O)ccc1C21OC(=O)c2ccccc21 [fluorescein diacetate, reference compound]",Stability in PBS and culture medium with 10% FBS (generation of fluorescence),[4],relatively rapid hydrolysis in both solutions
B1,Effect on apoptosis of DLD1 cells (annexin V staining),DLD1 cells [6],induced significant apoptosis

# — patent US20110165611A1, “DUAL MODALITY DETECTION OF APOPTOSIS” (priority 2008, published 2011)
